From patent US20250122257A1, “USE OF KININ OR DERIVATIVE THEREOF IN TREATING VCI, PSCI, OR CSVD” (ZonHon Biopharma Institute, Inc., priority 2022, published 2025)
Read-outs that look alike come from different tables or passages of the source. Square brackets hold non-standard residues; d marks the D form. Ends that are not written are not given here. Peptide text beside a SMILES is read from it. 2Thi = N[C@@H](Cc1cccs1)C(=O)O

What was measured:
[1] = in vivo, cited from earlier work
B2 receptor = biological target: T1, B2 receptor (Homo sapiens, UniProt P30411); test: Affinity activity to B2 receptor, reporter gene assay in B2-NFAT-CHO-K1 cells; assay type: cell-based; settings: relative activity calculated from EC50, 5 hours
T1 construct: expressed in transfected cells
T1 sequence (P30411 1-391): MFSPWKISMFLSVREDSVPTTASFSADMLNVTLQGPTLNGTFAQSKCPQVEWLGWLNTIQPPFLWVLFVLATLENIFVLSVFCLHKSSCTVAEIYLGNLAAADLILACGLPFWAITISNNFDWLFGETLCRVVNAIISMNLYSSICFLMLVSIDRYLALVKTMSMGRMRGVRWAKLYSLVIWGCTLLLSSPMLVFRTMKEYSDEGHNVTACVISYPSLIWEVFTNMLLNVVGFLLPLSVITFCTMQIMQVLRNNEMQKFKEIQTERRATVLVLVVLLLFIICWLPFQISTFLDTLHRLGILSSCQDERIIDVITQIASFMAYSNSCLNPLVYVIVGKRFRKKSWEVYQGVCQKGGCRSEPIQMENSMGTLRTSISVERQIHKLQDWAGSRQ
Method: The cell line B2-NFAT-CHO-K1 stably transfected with B2 receptor reporter gene was constructed based on CHO-K1 host cells and the cell library was constructed. The B2-NFAT-CHO-K1 cell library was used to evaluate the binding activity of lysyl bradykinin/bradykinin or its variants or PEG modified products to B2 receptor in vitro.
Detection methods: The cells were cultured in 96-well plates at 5×10^4cells/well, 37° C., 5% CO2 for 16-20 hours, and then gradient diluted standard and test solutions were added. After 5 hours, added Bio-Lite luciferase detection reagent and the chemiluminescence intensity was measured. GraphPad was used to make four-parameter equation curve and calculate the relative activity according to the EC50 value.
(§1) In vitro B2-receptor affinity activity and activity of activating downstream signaling pathway of PEG conjugates of lysyl bradykinin and its variants were tested, as in Example 3.

[2] = system: B2 receptor downstream signals p-CREB and p-ERK1/2; test: Phosphorylation of downstream ERK1/2 and CREB by WB in CHO-K1 (B2R+) cells; assay type: cell-based; settings: FIG. 3, WB
Method: as §1

NC(N)=NCCC[C@H](NC(=O)[C@H](Cc1ccccc1)NC(=O)[C@@H]1CCCN1C(=O)[C@H](CO)NC(=O)[C@H](Cc1ccccc1)NC(=O)CNC(=O)[C@@H]1CCCN1C(=O)[C@@H]1CCCN1C(=O)[C@@H](N)CCCN=C(N)N)C(=O)O [BK, bradykinin] (H-RPPGFSPFR-OH)
Half-life ([1]; reported): only seconds

NCCCC[C@H](N)C(=O)N[C@@H](CCCN=C(N)N)C(=O)N1CCC[C@H]1C(=O)N1CCC[C@H]1C(=O)NCC(=O)N[C@@H](Cc1ccccc1)C(=O)N[C@@H](CO)C(=O)N1CCC[C@H]1C(=O)N[C@@H](Cc1ccccc1)C(=O)N[C@@H](CCCN=C(N)N)C(=O)O [Lys-BK, lysyl bradykinin]
Half-life [1]: only seconds

Lys-BKm08: PG{THI}SPFR, SEQ ID NO 9 (PG[2Thi]SPFR)
Relative affinity activity to B2 receptor (B2 receptor): <10%

Lys-BKm09: {THI}SPFR, SEQ ID NO 10 ([2Thi]SPFR)
Relative affinity activity to B2 receptor (B2 receptor): 0%

Lys-BKm10: SPFR, SEQ ID NO 11
Relative affinity activity to B2 receptor (B2 receptor): 0%

Lys-BKm13-SPA5K: Lys-BKm13 modified with SPA5K PEG (CRRPPG[2Thi]SPFR; also: modified with SPA5K PEG, site not given here)
Activity of PEG conjugates in activating phosphorylation of ERK1/2 and CREB (in words) [2]: highest activity among different peptide variants
